According to patent US20240415914A1, “Water Dispersible Cannabinoid Compositions” (priority 2021, published 2024):
Like-named read-outs stand apart in the source and are kept apart here.

Assays:
[1] = assay type: physicochemical; details: stored at room temperature (21-25° C.)
Description: At each time period, 0.05 g of powder was dissolved in 10 ml-15 of ethanol, diluted to fall within the analytical range, and injected into the LCMSMS for analysis.

[2] = Stability of cannabinoid and Vitamin E components of Beverage 2 (AB Red) stored at 8° C. and 21-25° C., LCMSMS over 570 days
Description: The LCMSMS was calibrated for 0-50 ng/ml cannabinoids with the same resin material used in the preparation of the concentrates. At each time period, 100 μml of beverage was diluted with 10 ml of methanol and injected into the LCMSMS for analysis.

Compound: CCCCCc1cc(O)c2c(c1)OC1(C)CCC3C1C2C3(C)C (stereo not shown) [CBL, cannabicyclol]
- Stability in Powder Concentrate (content by LCMSMS) ([1]; day 0): 0.050 mg/g powder
- Stability in Powder Concentrate (content by LCMSMS) ([1]; day 1): 0.051 mg/g powder
- Stability in Powder Concentrate (content by LCMSMS) ([1]; day 2): 0.049 mg/g powder
- Stability in Powder Concentrate (content by LCMSMS) ([1]; day 3): 0.050 mg/g powder
- Stability in Powder Concentrate (content by LCMSMS) ([1]; day 5): 0.052 mg/g powder
- Stability in Powder Concentrate (content by LCMSMS) ([1]; day 8): 0.050 mg/g powder
- Stability in Powder Concentrate (content by LCMSMS) ([1]; day 9): 0.050 mg/g powder
- Stability in Powder Concentrate (content by LCMSMS) ([1]; day 10): 0.050 mg/g powder
- Stability in Powder Concentrate (content by LCMSMS) ([1]; day 11): 0.052 mg/g powder
- Stability in Powder Concentrate (content by LCMSMS) ([1]; day 12): 0.052 mg/g powder
- Stability in Powder Concentrate (content by LCMSMS) ([1]; day 15): 0.048 mg/g powder
- Stability in Powder Concentrate (content by LCMSMS) ([1]; day 16): 0.049 mg/g powder
- Stability in Powder Concentrate (content by LCMSMS) ([1]; day 17): 0.049 mg/g powder
- Stability in Powder Concentrate (content by LCMSMS) ([1]; day 18): 0.052 mg/g powder
- Stability in Powder Concentrate (content by LCMSMS) ([1]; day 19): 0.052 mg/g powder
- Stability in Powder Concentrate (content by LCMSMS) ([1]; day 22): 0.051 mg/g powder
- Stability in Powder Concentrate (content by LCMSMS) ([1]; day 23): 0.051 mg/g powder
- Stability in Powder Concentrate (content by LCMSMS) ([1]; day 24): 0.050 mg/g powder
- Stability in Powder Concentrate (content by LCMSMS) ([1]; day 25): 0.050 mg/g powder
- Stability in Powder Concentrate (content by LCMSMS) ([1]; day 26): 0.051 mg/g powder
- Stability in Powder Concentrate (content by LCMSMS) ([1]; day 29): 0.048 mg/g powder
- Stability in Powder Concentrate (content by LCMSMS) ([1]; day 30): 0.051 mg/g powder
- Stability in Powder Concentrate (content by LCMSMS) ([1]; day 60): 0.050 mg/g powder
- Stability in Powder Concentrate (content by LCMSMS) ([1]; day 90): 0.050 mg/g powder
- Stability in Powder Concentrate (content by LCMSMS) ([1]; day 120): 0.048 mg/g powder
- Stability in Powder Concentrate (content by LCMSMS) ([1]; day 150): 0.050 mg/g powder
- Stability in Powder Concentrate (content by LCMSMS) ([1]; day 180): 0.049 mg/g powder
- Stability in Powder Concentrate (content by LCMSMS) ([1]; day 210): 0.052 mg/g powder
- Stability in Powder Concentrate (content by LCMSMS) ([1]; day 240): 0.049 mg/g powder
- Stability in Powder Concentrate (content by LCMSMS) ([1]; day 270): 0.051 mg/g powder
- Stability in Powder Concentrate (content by LCMSMS) ([1]; day 300): 0.050 mg/g powder
- Stability in Powder Concentrate (content by LCMSMS) ([1]; day 330): 0.049 mg/g powder
- Stability in Powder Concentrate (content by LCMSMS) ([1]; day 360): 0.050 mg/g powder
- Stability in Powder Concentrate (content by LCMSMS) ([1]; day 390): 0.052 mg/g powder
- Stability in Powder Concentrate (content by LCMSMS) ([1]; day 420): 0.050 mg/g powder
- Stability in Powder Concentrate (content by LCMSMS) ([1]; day 450): 0.052 mg/g powder
- Stability in Powder Concentrate (content by LCMSMS) ([1]; day 480): 0.051 mg/g powder
- Stability in Powder Concentrate (content by LCMSMS) ([1]; day 510): 0.050 mg/g powder
- Stability in Powder Concentrate (content by LCMSMS) ([1]; day 540): 0.048 mg/g powder
- Stability in Powder Concentrate (content by LCMSMS) ([1]; day 570): 0.050 mg/g powder
- Stability of Cannabinoids in AB Red ([2]; 8° C., 0 days): 0.510 µg/mL
- Stability of Cannabinoids in AB Red ([2]; 8° C., 1 days): 0.512 µg/mL
- Stability of Cannabinoids in AB Red ([2]; 8° C., 2 days): 0.508 µg/mL
- Stability of Cannabinoids in AB Red ([2]; 8° C., 3 days): 0.499 µg/mL
- Stability of Cannabinoids in AB Red ([2]; 8° C., 5 days): 0.501 µg/mL
- Stability of Cannabinoids in AB Red ([2]; 8° C., 8 days): 0.496 µg/mL
- Stability of Cannabinoids in AB Red ([2]; 8° C., 9 days): 0.496 µg/mL
- Stability of Cannabinoids in AB Red ([2]; 8° C., 10 days): 0.505 µg/mL
- Stability of Cannabinoids in AB Red ([2]; 8° C., 11 days): 0.501 µg/mL
- Stability of Cannabinoids in AB Red ([2]; 8° C., 12 days): 0.499 µg/mL
- Stability of Cannabinoids in AB Red ([2]; 8° C., 15 days): 0.510 µg/mL
- Stability of Cannabinoids in AB Red ([2]; 8° C., 16 days): 0.502 µg/mL
- Stability of Cannabinoids in AB Red ([2]; 8° C., 17 days): 0.514 µg/mL
- Stability of Cannabinoids in AB Red ([2]; 8° C., 18 days): 0.513 µg/mL
- Stability of Cannabinoids in AB Red ([2]; 8° C., 19 days): 0.510 µg/mL
- Stability of Cannabinoids in AB Red ([2]; 8° C., 22 days): 0.495 µg/mL
- Stability of Cannabinoids in AB Red ([2]; 8° C., 23 days): 0.502 µg/mL
- Stability of Cannabinoids in AB Red ([2]; 8° C., 24 days): 0.508 µg/mL
- Stability of Cannabinoids in AB Red ([2]; 8° C., 25 days): 0.510 µg/mL
- Stability of Cannabinoids in AB Red ([2]; 8° C., 26 days): 0.502 µg/mL
- Stability of Cannabinoids in AB Red ([2]; 8° C., 29 days): 0.511 µg/mL
- Stability of Cannabinoids in AB Red ([2]; 8° C., 30 days): 0.511 µg/mL
- Stability of Cannabinoids in AB Red ([2]; 8° C., 60 days): 0.491 µg/mL
- Stability of Cannabinoids in AB Red ([2]; 8° C., 90 days): 0.501 µg/mL
- Stability of Cannabinoids in AB Red ([2]; 8° C., 120 days): 0.488 µg/mL
- Stability of Cannabinoids in AB Red ([2]; 8° C., 150 days): 0.501 µg/mL
- Stability of Cannabinoids in AB Red ([2]; 8° C., 180 days): 0.506 µg/mL
- Stability of Cannabinoids in AB Red ([2]; 8° C., 210 days): 0.490 µg/mL
- Stability of Cannabinoids in AB Red ([2]; 8° C., 240 days): 0.490 µg/mL
- Stability of Cannabinoids in AB Red ([2]; 8° C., 270 days): 0.504 µg/mL
- Stability of Cannabinoids in AB Red ([2]; 8° C., 300 days): 0.489 µg/mL
- Stability of Cannabinoids in AB Red ([2]; 8° C., 330 days): 0.505 µg/mL
- Stability of Cannabinoids in AB Red ([2]; 8° C., 390 days): 0.491 µg/mL
- Stability of Cannabinoids in AB Red ([2]; 8° C., 420 days): 0.494 µg/mL
- Stability of Cannabinoids in AB Red ([2]; 8° C., 450 days): 0.492 µg/mL
- Stability of Cannabinoids in AB Red ([2]; 8° C., 480 days): 0.487 µg/mL
- Stability of Cannabinoids in AB Red ([2]; 8° C., 510 days): 0.468 µg/mL
- Stability of Cannabinoids in AB Red ([2]; 8° C., 540 days): 0.470 µg/mL
- Stability of Cannabinoids in AB Red ([2]; 8° C., 570 days): 0.469 µg/mL
- Stability of Cannabinoids in AB Red ([2]; 21-25° C., 0 days): 0.51 µg/mL
- Stability of Cannabinoids in AB Red ([2]; 21-25° C., 1 days): 0.50 µg/mL
- Stability of Cannabinoids in AB Red ([2]; 21-25° C., 2 days): 0.50 µg/mL
- Stability of Cannabinoids in AB Red ([2]; 21-25° C., 3 days): 0.50 µg/mL
- Stability of Cannabinoids in AB Red ([2]; 21-25° C., 5 days): 0.51 µg/mL
- Stability of Cannabinoids in AB Red ([2]; 21-25° C., 8 days): 0.50 µg/mL
- Stability of Cannabinoids in AB Red ([2]; 21-25° C., 9 days): 0.51 µg/mL
- Stability of Cannabinoids in AB Red ([2]; 21-25° C., 10 days): 0.50 µg/mL
- Stability of Cannabinoids in AB Red ([2]; 21-25° C., 11 days): 0.50 µg/mL
- Stability of Cannabinoids in AB Red ([2]; 21-25° C., 12 days): 0.50 µg/mL
- Stability of Cannabinoids in AB Red ([2]; 21-25° C., 15 days): 0.50 µg/mL
- Stability of Cannabinoids in AB Red ([2]; 21-25° C., 16 days): 0.51 µg/mL
- Stability of Cannabinoids in AB Red ([2]; 21-25° C., 17 days): 0.51 µg/mL
- Stability of Cannabinoids in AB Red ([2]; 21-25° C., 18 days): 0.50 µg/mL
- Stability of Cannabinoids in AB Red ([2]; 21-25° C., 19 days): 0.49 µg/mL
- Stability of Cannabinoids in AB Red ([2]; 21-25° C., 22 days): 0.49 µg/mL
- Stability of Cannabinoids in AB Red ([2]; 21-25° C., 23 days): 0.51 µg/mL
- Stability of Cannabinoids in AB Red ([2]; 21-25° C., 24 days): 0.50 µg/mL
- Stability of Cannabinoids in AB Red ([2]; 21-25° C., 25 days): 0.51 µg/mL
- Stability of Cannabinoids in AB Red ([2]; 21-25° C., 26 days): 0.51 µg/mL
- Stability of Cannabinoids in AB Red ([2]; 21-25° C., 29 days): 0.49 µg/mL
- Stability of Cannabinoids in AB Red ([2]; 21-25° C., 30 days): 0.51 µg/mL
- Stability of Cannabinoids in AB Red ([2]; 21-25° C., 60 days): 0.50 µg/mL
- Stability of Cannabinoids in AB Red ([2]; 21-25° C., 90 days): 0.49 µg/mL
- Stability of Cannabinoids in AB Red ([2]; 21-25° C., 120 days): 0.50 µg/mL
- Stability of Cannabinoids in AB Red ([2]; 21-25° C., 150 days): 0.49 µg/mL
- Stability of Cannabinoids in AB Red ([2]; 21-25° C., 180 days): 0.50 µg/mL
- Stability of Cannabinoids in AB Red ([2]; 21-25° C., 210 days): 0.49 µg/mL
- Stability of Cannabinoids in AB Red ([2]; 21-25° C., 240 days): 0.49 µg/mL
- Stability of Cannabinoids in AB Red ([2]; 21-25° C., 270 days): 0.49 µg/mL
- Stability of Cannabinoids in AB Red ([2]; 21-25° C., 300 days): 0.50 µg/mL
- Stability of Cannabinoids in AB Red ([2]; 21-25° C., 330 days): 0.50 µg/mL
- Stability of Cannabinoids in AB Red ([2]; 21-25° C., 390 days): 0.49 µg/mL
- Stability of Cannabinoids in AB Red ([2]; 21-25° C., 420 days): 0.48 µg/mL
- Stability of Cannabinoids in AB Red ([2]; 21-25° C., 450 days): 0.49 µg/mL
- Stability of Cannabinoids in AB Red ([2]; 21-25° C., 480 days): 0.48 µg/mL
- Stability of Cannabinoids in AB Red ([2]; 21-25° C., 510 days): 0.47 µg/mL
- Stability of Cannabinoids in AB Red ([2]; 21-25° C., 540 days): 0.47 µg/mL
- Stability of Cannabinoids in AB Red ([2]; 21-25° C., 570 days): 0.47 µg/mL
